For 29 molecules, Ki and IC50 results are on record in patent publication US9085571B2, “Nonpeptide HIV-1 protease inhibitors” (Purdue Research Foundation, priority 2008, dated 2015).

One test concerns the target HIV-1 protease (Human immunodeficiency virus type 1 group M subtype B (isolate HXB2) (HIV-1), UniProt P04585). The test is described as follows: Inhibition of HIV proteases (inhibition constants, method of Toth and Marshall). Type of test: biochemical. An excerpt:
Techniques for measurement of the ability of the compounds herein described to decrease the proteolytic activity of proteases encoded by HIV are well known to those skilled in the relevant art and any one or combination of such techniques can be used to measure the inhibition of protease activity of the compound herein described. One illustrative method is described by Toth and Marshall (Toth & Marshall, Int. J. Pep. Protein Res. (1990), 36, 544-550). The disclosure of the foregoing is incorporated herein in its entirety by reference. In addition, the entirety of the disclosures of each of the publications cited herein are also incorporated herein by reference.

The next test concerns HIV-1. As to the kind of experiment: Inhibition of HIV-1 (IC50). The conditions noted are these: Human immunodeficiency virus 1. Type of test: cell-based, human immunodeficiency virus type 1.

On to `COc1ccc(S(=O)(=O)N(CC(C)C)C[C@@H](O)[C@H](Cc2ccccc2)NC(=O)c2cccc(C(=O)N(C)Cc3oc(C)nc3C)c2)cc1`, for which the Ki at HIV-1 protease came out at 0.6 nM.
`COc1ccc(S(=O)(=O)N(CC(C)C)C[C@@H](O)[C@H](Cc2ccccc2)NC(=O)c2cccc(C(=O)N(C)Cc3nc(C)co3)c2)cc1` returned a 50% inhibitory concentration (IC50) with HIV-1 of 20 nM. Moreover, the Ki on HIV-1 protease was found to be 0.6 nM.
With `COc1ccc(S(=O)(=O)N(CC(C)C)C[C@@H](O)[C@H](Cc2ccccc2)NC(=O)c2cc(N)cc(C(=O)N(C)C3CCCCC3)c2)cc1`, the Ki at HIV-1 protease came out at 300 nM.
Same read-out and setting: in the case of `CCCNC(=O)c1cc(N)cc(C(=O)N[C@@H](Cc2ccccc2)[C@H](O)CN(CC(C)C)S(=O)(=O)c2ccc(OC)cc2)c1` it was 400 nM; in that of `Cc1nc(CNC(=O)c2cccc(C(=O)N[C@@H](Cc3ccccc3)[C@H](O)CN3C[C@H]4CCCC[C@H]4C[C@H]3C(=O)NC(C)(C)C)c2)c(C)o1`, 20 nM.
In the case of `COc1ccc(S(=O)(=O)N(CC(C)C)C[C@@H](O)[C@H](Cc2ccccc2)NC(=O)c2cc(C(=O)N(C)C3CCCCC3)cc(N(C)C(=O)OC(C)(C)C)c2)cc1`, the inhibitory constant (Ki) at HIV-1 protease amounted to 1000 nM.
Consider `CCCN(C)C(=O)c1cc(C(=O)N[C@@H](Cc2ccccc2)[C@H](O)CN(CC(C)C)S(=O)(=O)c2ccc(OC)cc2)cc(N(C)C(=O)OC(C)(C)C)c1`, for which the Ki on HIV-1 protease is 1000 nM.
On to `CCCNC(=O)c1cc(NC)cc(C(=O)N[C@@H](Cc2ccccc2)[C@H](O)CN(CC(C)C)S(=O)(=O)c2ccc(OC)cc2)c1`, for which the Ki at HIV-1 protease stood at 300 nM.
Consider `CNc1cc(C(=O)N[C@@H](Cc2ccccc2)[C@H](O)CN(CC(C)C)S(=O)(=O)c2ccc(OC)cc2)cc(C(=O)N(C)C2CCCCC2)c1`, for which the Ki on HIV-1 protease turned out to be 200 nM.
On to `CCCN(C)C(=O)c1cc(NC)cc(C(=O)N[C@@H](Cc2ccccc2)[C@H](O)CN(CC(C)C)S(=O)(=O)c2ccc(OC)cc2)c1`, for which the Ki at HIV-1 protease was determined as 200 nM.
Turning to `COc1ccc(S(=O)(=O)N(CC(C)C)C[C@@H](O)[C@H](Cc2ccccc2)NC(=O)c2cc(OC)cc(C(=O)N(C)C3CCCCC3)c2)cc1`, the Ki at HIV-1 protease was found to be 40 nM.
Turning to `CCCNC(=O)c1cc(OC)cc(C(=O)N[C@@H](Cc2ccccc2)[C@H](O)CN(CC(C)C)S(=O)(=O)c2ccc(OC)cc2)c1`, the Ki at HIV-1 protease was 50 nM.
Take `Cc1nc(CN(C)C(=O)c2cccc(C(=O)N[C@@H](Cc3ccccc3)[C@H](O)CN3C[C@H]4CCCC[C@H]4C[C@H]3C(=O)NC(C)(C)C)c2)c(C)o1`: the Ki on HIV-1 protease is 5 nM.
In the case of `CCCN(CCC)C(=O)c1cccc(C(=O)N[C@@H](Cc2ccccc2)[C@H](O)CN2C[C@H]3CCCC[C@H]3C[C@H]2C(=O)NC(C)(C)C)c1`, on HIV-1 protease, the Ki was 100 nM.
On the same count and under the same terms, the same measure for `CCCN(CCC)C(=O)c1cccc(C(=O)N[C@@H](Cc2ccccc2)[C@H](O)CN(CC(C)C)S(=O)(=O)c2ccc(OC)cc2)c1`: 20 nM; for `CCCN(C)C(=O)c1cc(OC)cc(C(=O)N[C@@H](Cc2ccccc2)[C@H](O)CN(CC(C)C)S(=O)(=O)c2ccc(OC)cc2)c1`: 20 nM.
As to `COCc1coc(CN(C)C(=O)c2cccc(C(=O)N[C@@H](Cc3ccccc3)[C@H](O)CN(CC(C)C)S(=O)(=O)c3ccc(OC)cc3)c2)n1`, the Ki on HIV-1 protease was determined as 0.3 nM.
Regarding `Cc1coc(CN(C)C(=O)c2cccc(C(=O)N[C@@H](Cc3ccccc3)[C@H](O)CN(CC(C)C)S(=O)(=O)c3ccc(CO)cc3)c2)n1`, the Ki on HIV-1 protease is 0.6 nM.
In the test on HIV-1, `COc1ccc(S(=O)(=O)N(CC(C)C)C[C@@H](O)[C@H](Cc2ccccc2)NC(=O)c2cc(C)cc(C(=O)N(C)Cc3nc(C)oc3C)c2)cc1` came in with an IC50 of 30 nM. Moreover, on HIV-1 protease, the Ki stood at 0.2 nM.
Consider `COc1ccc(S(=O)(=O)N(CC(C)C)C[C@@H](O)[C@H](Cc2ccccc2)NC(=O)c2cncc(C(=O)N(C)Cc3nc(C)oc3C)c2)cc1`, for which, on HIV-1 protease, the inhibition constant Ki amounted to 6 nM.
Consider `COc1ccc(S(=O)(=O)N(CC(C)C)C[C@@H](O)[C@H](Cc2ccccc2)NC(=O)c2cc(OC)cc(C(=O)N(C)Cc3nc(C)oc3C)c2)cc1`, for which the Ki at HIV-1 protease was found to be 1 nM.
For the molecule `CNc1cc(C(=O)N[C@@H](Cc2ccccc2)[C@H](O)CN(CC(C)C)S(=O)(=O)c2ccc(OC)cc2)cc(C(=O)N(C)Cc2nc(C)oc2C)c1`, at HIV-1 protease, the Ki was found to be 5 nM.
Same read-out and setting: in the case of `COc1ccc(S(=O)(=O)N(CC(C)C)C[C@@H](O)[C@H](Cc2ccccc2)NC(=O)c2ccc(C(=O)N(C)Cc3nc(C)oc3C)cc2)cc1` it was 70 nM; in that of `COc1ccc(S(=O)(=O)N(CC(C)C)C[C@@H](O)[C@H](Cc2ccccc2)NC(=O)c2cc(N)cc(C(=O)N(C)Cc3nc(C)oc3C)c2)cc1`, 100 nM; in that of `COc1ccc(S(=O)(=O)N(CC(C)C)C[C@@H](O)[C@H](Cc2ccccc2)NC(=O)c2cccc(C(=O)N(C)Cc3csc(C)n3)c2)cc1`, 0.1 nM.
Turning to `COc1ccc(S(=O)(=O)N(CC(C)C)C[C@@H](O)[C@H](Cc2ccccc2)NC(=O)c2ccccc2C(=O)N(C)Cc2nc(C)oc2C)cc1`, the Ki on HIV-1 protease turned out to be 600 nM.
As for `Cc1nc(CN(C)C(=O)c2cccc(C(=O)N[C@@H](Cc3ccccc3)[C@H](O)CN(CC(C)C)S(=O)(=O)c3ccc(N)cc3)c2)c(C)o1`, on HIV-1 protease, the Ki was determined as 2 nM.
On to `COc1ccc(S(=O)(=O)N(CC(C)C)C[C@@H](O)[C@H](Cc2ccccc2)NC(=O)c2cccc(C(=O)N3CCC[C@H]3c3nc(C)cs3)c2)cc1`, for which the inhibition constant Ki at HIV-1 protease worked out at 30 nM.
`COc1ccc(S(=O)(=O)N(CC(C)C)C[C@@H](O)[C@H](Cc2ccccc2)NC(=O)c2cccc(C(=O)N3CCC[C@@H]3c3nc(C)cs3)c2)cc1`: in the test on HIV-1, it took 32 nM to reach half-maximal inhibition (IC50). On HIV-1 protease, the Ki lay within 0.03 to 8 nM.
